Data: PubChem BioAssay AID258 (DTP/NCI, 2004)
“And” between values parts separate entries of the source, which are not always exact repeats. Equal values may be shown once. Inconclusive results and toxic doses are left out. How the source made its calls: active means survival T/C of 150% or more; inactive means T/C below 125% in these data. Starred links: 1 amine or outer side, 2 acyl side, 3 side chain; linkers in the order of their positions; H or OH if unused. Positions of bridges follow the written chain, without caps; N, C: chain ends. Non-standard residues stand in square brackets, D forms with d. Residues, ends and D or L forms follow the SMILES beside them. Chains are numbered I, II in the order given. Actinocin(9to1) = Cc1c2oc3c(C)ccc(C(=O)[*:1])c3nc-2c(C(=O)[*:2])c(N)c1=O; aThr = C[C@H](O)[C@H](N)C(=O)O; NMeV = CN[C@H](C(=O)O)C(C)C; Sar = CNCC(=O)O

Tested on: CD2F1 mice, L1210 leukemia sc, survival T/C
Test: NCI In Vivo Anticancer Drug Screen. Data for tumor model L1210 Leukemia (subcutaneous) in CD2F1 (CDF1) mice
Settings: endpoint: median survival time, higher = longer survival
Method in brief: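 Read-out: survival or tumor size. Value = treated (T) / vehicle control (C). Transplantable tumor in mice.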

Measured: T/C

Cc1c2oc3c(C)ccc(C(=O)N[C@@H]4C(=O)N[C@H](C(C)C)C(=O)N5CCC[C@H]5C(=O)N(C)CC(=O)N(C)[C@@H](C(C)C)C(=O)O[C@H]4C)c3nc-2c(C(=O)N[C@@H]2C(=O)N[C@H](C(C)C)C(=O)N3CCC[C@H]3C(=O)N(C)CC(=O)N(C)[C@@H](C(C)C)C(=O)O[C@H]2C)c(N)c1=O (I: [aThr][dV]P[Sar][NMeV] / II: [aThr][dV]P[Sar][NMeV]; ester I:1-I:C, II:1-II:C; linker I:N-II:N via Actinocin(9to1))
inactive: dose: 0.05 mg/kg/injection, schedule: Q01DX009 (sc), vehicle: saline 101 % of control | dose: 0.05 mg/kg/injection, schedule: Q01DX Z (sc), vehicle: other 108 % of control and 100 % of control | dose: 0.05 mg/kg/injection, schedule: Q01DX Z (sc), vehicle: saline 100 % of control | dose: 0.08 mg/kg/injection, schedule: Q01DX Z (sc), vehicle: other 112 % of control | dose: 0.08 mg/kg/injection, schedule: Q07DX Z (sc), vehicle: other 100 % of control | dose: 0.09 mg/kg/injection, schedule: Q01DX Z (sc), vehicle: other 116 % of control | dose: 0.1 mg/kg/injection, schedule: Q01DX009 (sc), vehicle: saline 113 % of control | dose: 0.13 mg/kg/injection, schedule: Q01DX009 (sc), vehicle: saline 122 % of control | dose: 0.14 mg/kg/injection, schedule: Q07DX Z (sc), vehicle: other 112 % of control | dose: 0.15 mg/kg/injection, schedule: Q01DX009 (sc), vehicle: saline 120 % of control | dose: 0.2 mg/kg/injection, schedule: Q01DX009 (sc), vehicle: saline 105 % of control and 113 % of control | dose: 0.23 mg/kg/injection, schedule: Q07DX Z (sc), vehicle: other 112 % of control | dose: 0.25 mg/kg/injection, schedule: Q01DX009 (sc), vehicle: saline 93 % of control | dose: 0.3 mg/kg/injection, schedule: Q01DX009 (sc), vehicle: saline 95 % of control | dose: 0.39 mg/kg/injection, schedule: Q07DX Z (sc), vehicle: other 112 % of control | dose: 0.42 mg/kg/injection, schedule: Q01DX Z (sc), vehicle: other 116 % of control | dose: 0.7 mg/kg/injection, schedule: Q01DX Z (sc), vehicle: other 112 % of control | dose: 1.17 mg/kg/injection, schedule: Q01DX Z (sc), vehicle: other 100 % of control | dose: 12.0 micrograms/kg/injection, schedule: Q01DX009 (ip), vehicle: saline 101 % of control | dose: 12.0 micrograms/kg/injection, schedule: Q01DX009 (sc), vehicle: saline 101 % of control | dose: 25.0 micrograms/kg/injection, schedule: Q01DX009 (ip), vehicle: saline 102 % of control | dose: 25.0 micrograms/kg/injection, schedule: Q01DX009 (sc), vehicle: saline 100 % of control | dose: 50.0 micrograms/kg/injection, schedule: Q01DX009 (ip), vehicle: saline 98 % of control | dose: 50.0 micrograms/kg/injection, schedule: Q01DX009 (sc), vehicle: saline 101 % of control | dose: 100.0 micrograms/kg/injection, schedule: Q01DX009 (ip), vehicle: saline 113 % of control | dose: 100.0 micrograms/kg/injection, schedule: Q01DX009 (sc), vehicle: saline 103 % of control and 119 % of control | dose: 200.0 micrograms/kg/injection, schedule: Q01DX009 (ip), vehicle: saline 107 % of control | dose: 200.0 micrograms/kg/injection, schedule: Q01DX009 (sc), vehicle: saline 114 % of control and 118 % of control | dose: 400.0 micrograms/kg/injection, schedule: Q01DX009 (sc), vehicle: saline 112 % of control and 86 % of control
